Test results: patent publication US8952024B2, “Herbicidal pyrimidone derivatives” (E I du Pont de Nemours and Company, priority 2009, dated 2015)

Legend:
Format in all cases: in vivo
[1] = test system: corn (Zea mays); experiment: Test B pre-/postemergence plant response; conditions: Postemergence
Excerpt: (§1) Seeds of plant species selected from blackgrass (Alopecurus myosuroides), downy bromegrass (Bromus tectorum), green foxtail (Setaria viridis), Italian ryegrass (Lolium multiflorum), wheat (Triticum aestivum), wild oat (Avena fatua), deadnettle (henbit deadnettle, Lamium amplexicaule), galium (catchweed bedstraw, Galium aparine), bermudagrass (Cynodon dactylon), Surinam grass (Brachiaria decumbens), cocklebur (Xanthium strumarium), corn (Zea mays), large crabgrass (Digitaria sanguinalis), woolly cupgrass (Eriochloa villosa), giant foxtail (Setaria faberii), goosegrass (Eleusine indica), johnsongrass (Sorghum halepense), kochia (Kochia scoparia), lambsquarters (Chenopodium album), morningglory (Ipomoea coccinea), nightshade (eastern black nightshade, Solanum ptycanthum), yellow nutsedge (Cyperus esculentus), pigweed (Amaranthus retroflexus), ragweed (common ragweed, Ambrosia elatior), Russian thistle (Salsola kali), soybean (Glycine max), sunflower (common oilseed sunflower, Helianthus annuus) and velvetleaf (Abutilon theophrasti) were planted into a blend of loam soil and sand and treated preemergence with test compounds formulated in a non-phytotoxic solvent mixture which included a surfactant.
(§2) At the same time, plants selected from these crop and weed species and also winter barley (Hordeum vulgare), canarygrass (Phalaris minor), chickweed (Stellaria media) and windgrass (Apera spica-venti) were planted in pots containing Redi-Earth® planting medium (Scotts Company, 14111 Scottslawn Road, Marysville, Ohio 43041) comprising spaghnum peat moss, vermiculite, wetting agent and starter nutrients and treated with postemergence applications of some of the test chemicals formulated in the same manner. Plants ranged in height from 2 to 18 cm (1- to 4-leaf stage) for postemergence treatments.
(§3) Treated plants and controls were maintained in a greenhouse for 13 to 15 days, after which time all treated plants were visually evaluated and compared to controls. Plant response ratings, summarized in Table B, are based on a scale of 0 to 100 where 0 is no effect and 100 is complete control. A dash (-) response means no test result.

[2] = test system: morningglory (Ipomoea coccinea); experiment: Test B pre-/postemergence plant response; conditions: Postemergence
Excerpt: as §1, §2, §3

[3] = test system: Italian ryegrass (Lolium multiflorum); experiment: Test B pre-/postemergence plant response; conditions: Postemergence
Excerpt: as §1, §2, §3

[4] = test system: blackgrass (Alopecurus myosuroides); experiment: Test B pre-/postemergence plant response; conditions: Postemergence
Excerpt: as §1, §2, §3

[5] = test system: ragweed (common ragweed, Ambrosia elatior); experiment: Test B pre-/postemergence plant response; conditions: Postemergence
Excerpt: as §1, §2, §3

[6] = test system: soybean (Glycine max); experiment: Test B pre-/postemergence plant response; conditions: Postemergence
Excerpt: as §1, §2, §3

[7] = test system: bermudagrass (Cynodon dactylon); experiment: Test B pre-/postemergence plant response; conditions: Postemergence
Excerpt: as §1, §2, §3

[8] = test system: Surinam grass (Brachiaria decumbens); experiment: Test B pre-/postemergence plant response; conditions: Postemergence
Excerpt: as §1, §2, §3

[9] = test system: ducksalad (Heteranthera limosa); experiment: Test B flooded paddy test; conditions: for Plant response rating, Ducksalad: Flood (flooded paddy test), 13 to 15 days
Summary of the method: (§4)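 Visual scores run from 0 (no effect) to 100 (complete control), assigned by comparison with controls 13 to 15 days after treatment. Test compounds went straight into water standing 3 cm above the soil, around plants at the 2-leaf stage kept in a greenhouse.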

[10] = test system: umbrella sedge (Cyperus difformis); experiment: Test B flooded paddy test; conditions: for Plant response rating, Sedge, Umbrella: Flood (flooded paddy test), 13 to 15 days
Summary of the method: as §4

[11] = test system: rice (Oryza sativa); experiment: Test B flooded paddy test; conditions: for Plant response rating, Rice: Flood (flooded paddy test), 13 to 15 days
Summary of the method: as §4

[12] = test system: barnyardgrass (Echinochloa crus-galli); experiment: Test B flooded paddy test; conditions: for Plant response rating, Barnyardgrass: Flood (flooded paddy test), 13 to 15 days
Summary of the method: as §4

[13] = 31 g ai/ha, 0 to 100 scale (0 no effect, 100 complete control)
[14] = 62 g ai/ha, scale 0 to 100 (0 no effect, 100 complete control)
[15] = 125 g ai/ha, scale 0 (no effect) to 100 (complete control), 13 to 15 days
[16] = 250 g ai/ha, scale 0 to 100 (0 no effect, 100 complete control), 13 to 15 days
[17] = 250 g ai/ha, flooded paddy test, visual rating on 0 to 100 scale (0 no effect, 100 complete control) after 13 to 15 days
[18] = 62 g ai/ha, scale of 0 to 100 where 0 is no effect and 100 is complete control
[19] = 125 g ai/ha, scale 0 to 100, 0 is no effect, 100 is complete control
[20] = Flood, 31 g ai/ha, scale 0 to 100 (0 no effect, 100 complete control)

CCCCn1c(-c2cccc(F)c2)ncc(C(=O)C2=C(O)C3CCC(C3)C2=O)c1=O (stereo not drawn) [Compound 237]
Plant response rating, Corn [1, 13]: 85
Plant response rating, Corn [1, 14]: 98
Plant response rating, Corn [1, 15]: 100
Plant response rating, Corn [1, 16]: 100
Plant response rating, Morningglory [2, 13]: 85
Plant response rating, Morningglory [2, 14]: 95
Plant response rating, Morningglory [2, 15]: 100
Plant response rating, Morningglory [2, 16]: 100
Plant response rating, Ryegrass, Italian [3, 13]: 50
Plant response rating, Ryegrass, Italian [3, 14]: 50
Plant response rating, Ryegrass, Italian [3, 15]: 60
Plant response rating, Ryegrass, Italian [3, 16]: 60
Plant response rating, Blackgrass [4, 13]: 50
Plant response rating, Blackgrass [4, 14]: 70
Plant response rating, Blackgrass [4, 15]: 70
Plant response rating, Blackgrass [4, 16]: 80
Plant response rating, Ragweed [5, 13]: 95
Plant response rating, Ragweed [5, 14]: 98
Plant response rating, Ragweed [5, 15]: 100
Plant response rating, Ragweed [5, 16]: 100
Plant response rating, Soybean [6, 13]: 95
Plant response rating, Soybean [6, 14]: 100
Plant response rating, Soybean [6, 15]: 100
Plant response rating, Soybean [6, 16]: 100
Plant response rating, Bermudagrass [7, 13]: 98
Plant response rating, Bermudagrass [7, 14]: 98
Plant response rating, Bermudagrass [7, 15]: 100
Plant response rating, Bermudagrass [7, 16]: 100
Plant response rating, Surinam Grass [8, 13]: 85
Plant response rating, Surinam Grass [8, 14]: 98
Plant response rating, Surinam Grass [8, 15]: 100
Plant response rating, Surinam Grass [8, 16]: 100
Plant response rating, Flood, Ducksalad [9, 17]: 100
Plant response rating, Ducksalad [9, 18]: 65
Plant response rating, Ducksalad [9, 19]: 90
Ducksalad plant response rating [9, 20]: 0
Plant response rating, Flood, Sedge, Umbrella [10, 17]: 100
Plant response rating, Sedge, Umbrella [10, 18]: 45
Plant response rating, Sedge, Umbrella [10, 19]: 55
Sedge, Umbrella plant response rating [10, 20]: 0
Plant response rating, Flood, Rice [11, 17]: 45
Plant response rating, Rice [11, 18]: 0
Plant response rating, Rice [11, 19]: 0
Rice plant response rating [11, 20]: 0
Plant response rating, Flood, Barnyardgrass [12, 17]: 30
Plant response rating, Barnyardgrass [12, 18]: 0
Plant response rating, Barnyardgrass [12, 19]: 0
Barnyardgrass plant response rating [12, 20]: 0
